Tests used:
[1] = target: T1, chimeric REV1 CTD protein (Mus musculus, UniProt Q920Q2); assay: Isothermal titration calorimetry; type: binding; conditions: 25° C.
T1 construct: the mouse REV1 CTD (F1150-T1249); His10-GB1 (TEV site) (N, cleaved yes); made in house; host or cells: E. coli BL21 Star (DE3)
T1 sequence (Q920Q2 1150-1249): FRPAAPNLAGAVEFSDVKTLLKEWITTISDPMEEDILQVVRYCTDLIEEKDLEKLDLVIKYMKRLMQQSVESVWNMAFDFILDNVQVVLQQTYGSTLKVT
Description: Isothermal titration calorimetry measurements were carried out using a MicroCal VP-ITC instrument at 25° C., with the chimeric REV1 CTD protein (300 μM) in the syringe and compound (15 μM) in the cell. Compounds were initially dissolved in 50% MPD. Protein and compound samples were diluted in a buffer containing 50 mM HEPES pH 7.5, 50 mM KCl, 2 mM TCEP, 2% DMSO and 0.1% MPD. Microcal Origin 7 software was used to analyze the data.

KP cells = assay: CellTiter-Glo Luminescence cell viability assay; type: cell-based, mouse
Description: Relative viability of cells in response to RE01 and DNA-damaging agents was assessed by the CellTiter-Glo Luminescence cell viability assay (Promega) that determines the number of viable cells based on the relative amount of ATP in the culture, which is directly proportional to the number of metabolically active cells. Briefly, 10,000 cells were plated in each well of a 96-well, white, clear flat bottom plate (Corning). Increasing doses of drugs in various combinations-RE01 alone or in combination with DNA-damaging agents-were added into the plates after 24 hours. The RE01 compound was dissolved in 0.1% DMSO and other drugs were dissolved in solvents ascribed by the manufacturer. In all cases, DMSO controls were run in parallel to the drug treatments. Cells were treated with DMSO or cisplatin (0.5 uM) for 24 hours, followed by RE01 (1.5 uM) treatment for additional 24 hours. Cells were washed and allowed to form colonies for 5-7 days and counted after staining with Coomassie brilliant blue R-250 stain. The relative viability of cells was monitored after 24 hours of drug treatment by adding CellTiter-Glo Luminescence stain to an equilibrated plate per the manufacturer's instructions. Luminescence was measured on the plate reader (Tecan Spark 10M). Relative luminescence, which is indicative of relative survival of metabolically active cells, was calculated by dividing the luminescence of treated samples with DMSO controls.
Viabilities of HT1080 (human fibrosarcoma), A375 (human melanoma), LNCap (human prostate adenocarcinoma), KP (mouse Kras^G12D;p53^−/− lung adenocarcinoma), and AG01522 (human primary fibroblasts) cells were assessed by the Promega CellTiter-Glo Luminescence cell viability assay. Relative luminescence intensities to samples treated with 0 μM RE01 (panel A) or with 0 μM DNA-damaging agents (panels B and C) are plotted. Blue lines represent single agent treatments, and orange lines represent RE01 combination treatments. […]

A375 xenograft tumors = assay: Murine xenograft tumor model; type: in vivo, mouse; conditions: co-administration RE01 1.6 mg/kg with cisplatin 1 mg/kg, intratumoral, twice per week for 5 weeks
Description: NCRNU-F (nude) female, 6-8-week-old mice were divided into 4 groups (with 6 animals per group) for saline, cisplatin alone, RE01 alone, and cisplatin and RE01 combination treatments. Three million A375 cells mixed in matrigel (Corning) were injected into each flank of the 6 mice to generate 10-12 xenograft tumors per treatment group. After the tumors grew to a total tumor volume of at least 100 mm^3, the drugs (saline, cisplatin alone, RE01 alone, and cisplatin and RE01 combination) with a total volume of 100 μL per injection were injected directly into the tumor. Treatments were carried out twice per week for 5 weeks. On the dosing day, tumors were first measured with calipers, weights were recorded, and then the drugs would be injected directly into the tumors. The mice were sedated with isofluorane prior to measurements and treatments.
The drugs were formulated in 10% EtOH, 40% PEG400, and 50% saline for all the four types of treatments. Cisplatin was injected at a dose of 1 mg/kg per animal and RE01 was administered at a 1.6 mg/kg per animal. In the combination treatment of cisplatin and RE01, the same doses of 1 mg/kg and 1.6 mg/kg respectively per animal were administered. Tumor volumes were calculated by the formula (W^2×L)/2 as described previously.

[2] = target: T2, REV1 CTD-REV7/3 interaction (Mus musculus, UniProt Q920Q2); assay: AlphaScreen assay, inhibition of the REV1 CTD-REV7/3 interaction; type: binding; conditions: fitting of the inhibition curve, inhibitor 0-25 μM, n=3
T2 construct: fused on or other part: FLAG tag at the N-terminus (after the TEV site; His10-GB1 solubility tag cleaved off); di-glycine linker between mouse POL kappa RIR K564-N577 and the REV1 CTD; Q9QUG2 (DNA polymerase kappa)
T2 sequence (Q920Q2 whole entry, looked up, the tested form may be a part): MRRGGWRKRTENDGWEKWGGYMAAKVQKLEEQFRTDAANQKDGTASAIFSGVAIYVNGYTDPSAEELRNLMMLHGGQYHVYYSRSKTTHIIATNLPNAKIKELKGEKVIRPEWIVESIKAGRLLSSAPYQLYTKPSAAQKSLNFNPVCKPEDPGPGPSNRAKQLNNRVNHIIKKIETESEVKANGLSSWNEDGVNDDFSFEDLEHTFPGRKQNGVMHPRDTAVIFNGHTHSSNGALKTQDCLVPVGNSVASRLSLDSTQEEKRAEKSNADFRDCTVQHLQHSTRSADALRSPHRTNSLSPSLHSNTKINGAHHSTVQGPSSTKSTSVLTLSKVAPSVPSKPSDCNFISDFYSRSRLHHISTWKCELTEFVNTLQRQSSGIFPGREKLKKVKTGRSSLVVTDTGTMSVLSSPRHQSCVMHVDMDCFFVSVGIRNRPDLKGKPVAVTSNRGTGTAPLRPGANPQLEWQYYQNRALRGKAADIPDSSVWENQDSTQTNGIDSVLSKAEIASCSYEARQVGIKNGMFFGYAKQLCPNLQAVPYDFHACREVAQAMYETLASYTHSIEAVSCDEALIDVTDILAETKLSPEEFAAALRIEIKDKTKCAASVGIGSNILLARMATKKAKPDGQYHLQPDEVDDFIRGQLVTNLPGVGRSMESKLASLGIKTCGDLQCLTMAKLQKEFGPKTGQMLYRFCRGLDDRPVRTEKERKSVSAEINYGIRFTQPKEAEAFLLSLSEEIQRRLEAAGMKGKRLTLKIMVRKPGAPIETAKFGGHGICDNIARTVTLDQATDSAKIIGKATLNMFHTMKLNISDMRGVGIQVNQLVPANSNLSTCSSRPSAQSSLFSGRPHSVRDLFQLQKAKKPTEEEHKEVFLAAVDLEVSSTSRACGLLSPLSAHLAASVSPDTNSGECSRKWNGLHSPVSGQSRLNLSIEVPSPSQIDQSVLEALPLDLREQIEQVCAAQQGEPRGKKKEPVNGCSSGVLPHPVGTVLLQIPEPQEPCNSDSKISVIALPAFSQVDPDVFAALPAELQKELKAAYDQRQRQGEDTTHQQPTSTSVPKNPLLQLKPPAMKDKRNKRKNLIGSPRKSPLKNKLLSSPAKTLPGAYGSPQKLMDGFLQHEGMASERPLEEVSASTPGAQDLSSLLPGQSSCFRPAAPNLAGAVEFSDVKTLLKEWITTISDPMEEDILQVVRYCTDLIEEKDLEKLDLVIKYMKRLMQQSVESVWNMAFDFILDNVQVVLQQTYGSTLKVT
Description: The FLAG-tagged mouse POL κ-REV1 CTD was diluted in PBS containing 1 mM Tris(2-carboxyethyl)phosphine (TCEP) and 0.005% Tween-20 at a final protein concentration of 1 nM and transferred to individual wells of a 96-well, half-area, white opaque plate (PerkinElmer). Serially diluted RE01 stock solutions in 50% DMSO were added to the wells to yield final inhibitor concentrations of 0-25 μM in 2% DMSO. After 30 min incubation, anti-FLAG Donor Beads (PerkinElmer) were added to a final concentration of 20 ng/μL to individual wells and incubated for an hour. His8-tagged mouse REV7/3 was subsequently added to the reaction mixture to a final concentration of 10 nM and incubated for 30 min. Anti-His Acceptor Beads (PerkinElmer) were added to a final concentration of 20 ng/μL and incubated for an hour.
Error bars represent standard error (n=3).

protein-to-ligand stoichiometry [1]: 2.04±0.03
Kd ([1]; read-out: dissociation constant (Kd)): 420 ± 110 nM
IC50 [2]: 780 nM
SMILES: CC(C)CC(=O)c1c(Nc2ccc(Cl)cc2Cl)[nH]c2c(Cl)ccc([N+](=O)[O-])c2c1=O [RE01, 8-chloro-2-((2,4-dichlorophenyl)amino)-3-(3-methylbutanoyl)-5-nitroquinolin-4(1H)-one]
sensitization to DNA-damaging agent (KP cells; RE01 1.5 μM with 4-nitroquinolone 1-oxide (4-NQO)): sensitized
sensitization to DNA-damaging agent (KP cells; RE01 1.5 μM with benzo[a]pyrene diol epoxide (BPDE)): sensitized
sensitization to DNA-damaging agent (KP cells; RE01 1.5 μM with methyl methanesulfonate (MMS)): sensitized
growth of xenograft human melanomas (A375 xenograft tumors): strikingly suppresses
